Data as given in US20220160703A1, “TUMOR-SELECTIVE COMBINATION THERAPY” (The Board of Regents of The University of Texas System, priority 2019, published 2022).

What was measured:
[1] = system: NQO1 negative cell lines Panc02 and B16; experiment: Cell viability/survival of NQO1 negative murine tumor lines (SRB); format: cell-based; conditions: β-lap 0-8 μM, SRB 4 days later
Procedure: (FIG. 1A) NQO1 positive tumor cell lines MC38, TC-1 and Ag104Ld and NQO1 negative cell lines Panc02 and B16 grown in 48-well plates were treated with β-lap (0-8 μM) for a 3 hr followed by washing and replacing medium. Cell viability was determined by Sulforhodamine B (SRB) Assay 4 days later. […] (FIG. 1C) MC38 cells with CRISPR-based NQO1 Knockout (MC38 NQO1KO #5) planted in 96-well plates were exposed to β-lap for 3 hr and cell survival was assessed 48 hr later. […] (FIG. 1E) MC38 cells were exposed to a lethal dose of β-lap (4 μM) for indicated times, then stained with 7-AAD and Annexin V followed by flow cytometry analysis. […] (FIG. 1H) MC38 and B16 NQO1 #1 cells were exposed to β-lap for a 3 hr. Catalase (1000 U/ml) was added and cell survival was assessed 48 hr later. […] Tumor growth was monitored twice a week.
(§1) (FIG. 8A) NQO1 expression in multiple murine tumor lines was immunoblotted as indicated. […] Drugs were removed and survival assessed 5 days later. (FIG. 8C) Relative H2O2 levels were assessed in various cells treated with β-lap for 3 h at the indicated doses using CellRox-Glo. […] (FIG. 8D) TC-1 cells exposure to β-lap for 12 h, later PARP-1 and Caspase-3 levels were analyzed by western blotting assay. […]
(FIGS. 14A-C) NQO1 cells MC38 (A) and TC-1 (B) and NQO1^− cells B16 (C) were treated for 2 h with various doses of IB-DNQ±DIC (50 μM). Drugs were removed and survival assessed 6 days later. […]

[2] = system: NQO1 positive tumor cell lines MC38, TC-1 and Ag104Ld; format: cell-based
Procedure: (FIG. 1A) NQO1 positive tumor cell lines MC38, TC-1 and Ag104Ld and NQO1 negative cell lines Panc02 and B16 grown in 48-well plates were treated with β-lap (0-8 μM) for a 3 hr followed by washing and replacing medium. Cell viability was determined by Sulforhodamine B (SRB) Assay 4 days later. […] (FIG. 1C) MC38 cells with CRISPR-based NQO1 Knockout (MC38 NQO1KO #5) planted in 96-well plates were exposed to β-lap for 3 hr and cell survival was assessed 48 hr later. […] (FIG. 1E) MC38 cells were exposed to a lethal dose of β-lap (4 μM) for indicated times, then stained with 7-AAD and Annexin V followed by flow cytometry analysis. […] (FIG. 1H) MC38 and B16 NQO1 #1 cells were exposed to β-lap for a 3 hr. Catalase (1000 U/ml) was added and cell survival was assessed 48 hr later. (FIG. 1I) C57BL/6 mice (n=5/group) were transplanted with MC38 cells and treated with β-lap (0.03 mg, 0.1 mg or 0.3 mg, intratumorally; or 25 mg/kg, i.v.) every other day for four times. […] Tumor growth was monitored twice a week.
as §1
(FIGS. 14A-C) NQO1 cells MC38 (A) and TC-1 (B) and NQO1^− cells B16 (C) were treated for 2 h with various doses of IB-DNQ±DIC (50 μM). Drugs were removed and survival assessed 6 days later. […] (FIGS. 14E-F) Relative NAD^+ (E) or ATP (F) levels were assessed in TC-1 cells exposed to various doses of IB-DNQ for 2 h. […] Comet tail lengths in a.u. were monitored at indicated time; and DSBs quantified by γH2AX foci/nuclei using immunofluorescence at indicated time (FIG. 14H). […]
(FIG. 21A) Viability of murine cell lines following IB-DNQ treatment for 4 h. […] (FIGS. 21D-E) DNA double strand break was assessed via comet assay (FIG. 21D) and γH2AX foci/nuclei immunofluorescence (FIG. 21E). […]

NQO1 = NQO1 (Homo sapiens, UniProt P15559); conditions: in ~2 min; cited from earlier work
Sequence of NQO1 (P15559 whole entry, species assumed): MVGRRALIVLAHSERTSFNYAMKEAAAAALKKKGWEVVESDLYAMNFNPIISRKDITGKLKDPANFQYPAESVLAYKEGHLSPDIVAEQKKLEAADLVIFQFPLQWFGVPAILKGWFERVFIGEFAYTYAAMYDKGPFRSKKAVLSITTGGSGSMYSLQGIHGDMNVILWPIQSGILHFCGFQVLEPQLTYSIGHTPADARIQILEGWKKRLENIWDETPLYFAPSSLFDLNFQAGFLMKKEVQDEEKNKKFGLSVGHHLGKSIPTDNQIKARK

## CC1(C)CCC2=C(O1)c1ccccc1C(=O)C2=O [β-lap, β-lapachone]
[1]
  response to 3 h β-lap exposure (cell viability): resistant
[2]; β-lap 0-8 μM, 3 hr, SRB 4 days later
  response to 3 h β-lap exposure (cell viability): sensitive
[2]; β-lap 3 h ± DIC 50 μM, survival 5 days later
  cell killing: selectively killed
NQO1
  NAD(P)H consumed by one mole of drug: ~60 mol
  superoxide generated by one mole of drug: ~120 mol
